{"source": "paper PMC6268880", "about": "“IMB2026791, a Xanthone, Stimulates Cholesterol Efflux by Increasing the Binding of Apolipoprotein A-I to ATP-Binding Cassette Transporter A1” (Molecules, 2012)", "target": "T1, ATP-binding cassette transporter A1 (ABCA1) (Homo sapiens, UniProt O95477)", "T1 construct": "full-length ABCA1 (pIRES2-EGFP-ABCA1) in CHO cells; with apoA-I", "T1 sequence (O95477 whole entry)": "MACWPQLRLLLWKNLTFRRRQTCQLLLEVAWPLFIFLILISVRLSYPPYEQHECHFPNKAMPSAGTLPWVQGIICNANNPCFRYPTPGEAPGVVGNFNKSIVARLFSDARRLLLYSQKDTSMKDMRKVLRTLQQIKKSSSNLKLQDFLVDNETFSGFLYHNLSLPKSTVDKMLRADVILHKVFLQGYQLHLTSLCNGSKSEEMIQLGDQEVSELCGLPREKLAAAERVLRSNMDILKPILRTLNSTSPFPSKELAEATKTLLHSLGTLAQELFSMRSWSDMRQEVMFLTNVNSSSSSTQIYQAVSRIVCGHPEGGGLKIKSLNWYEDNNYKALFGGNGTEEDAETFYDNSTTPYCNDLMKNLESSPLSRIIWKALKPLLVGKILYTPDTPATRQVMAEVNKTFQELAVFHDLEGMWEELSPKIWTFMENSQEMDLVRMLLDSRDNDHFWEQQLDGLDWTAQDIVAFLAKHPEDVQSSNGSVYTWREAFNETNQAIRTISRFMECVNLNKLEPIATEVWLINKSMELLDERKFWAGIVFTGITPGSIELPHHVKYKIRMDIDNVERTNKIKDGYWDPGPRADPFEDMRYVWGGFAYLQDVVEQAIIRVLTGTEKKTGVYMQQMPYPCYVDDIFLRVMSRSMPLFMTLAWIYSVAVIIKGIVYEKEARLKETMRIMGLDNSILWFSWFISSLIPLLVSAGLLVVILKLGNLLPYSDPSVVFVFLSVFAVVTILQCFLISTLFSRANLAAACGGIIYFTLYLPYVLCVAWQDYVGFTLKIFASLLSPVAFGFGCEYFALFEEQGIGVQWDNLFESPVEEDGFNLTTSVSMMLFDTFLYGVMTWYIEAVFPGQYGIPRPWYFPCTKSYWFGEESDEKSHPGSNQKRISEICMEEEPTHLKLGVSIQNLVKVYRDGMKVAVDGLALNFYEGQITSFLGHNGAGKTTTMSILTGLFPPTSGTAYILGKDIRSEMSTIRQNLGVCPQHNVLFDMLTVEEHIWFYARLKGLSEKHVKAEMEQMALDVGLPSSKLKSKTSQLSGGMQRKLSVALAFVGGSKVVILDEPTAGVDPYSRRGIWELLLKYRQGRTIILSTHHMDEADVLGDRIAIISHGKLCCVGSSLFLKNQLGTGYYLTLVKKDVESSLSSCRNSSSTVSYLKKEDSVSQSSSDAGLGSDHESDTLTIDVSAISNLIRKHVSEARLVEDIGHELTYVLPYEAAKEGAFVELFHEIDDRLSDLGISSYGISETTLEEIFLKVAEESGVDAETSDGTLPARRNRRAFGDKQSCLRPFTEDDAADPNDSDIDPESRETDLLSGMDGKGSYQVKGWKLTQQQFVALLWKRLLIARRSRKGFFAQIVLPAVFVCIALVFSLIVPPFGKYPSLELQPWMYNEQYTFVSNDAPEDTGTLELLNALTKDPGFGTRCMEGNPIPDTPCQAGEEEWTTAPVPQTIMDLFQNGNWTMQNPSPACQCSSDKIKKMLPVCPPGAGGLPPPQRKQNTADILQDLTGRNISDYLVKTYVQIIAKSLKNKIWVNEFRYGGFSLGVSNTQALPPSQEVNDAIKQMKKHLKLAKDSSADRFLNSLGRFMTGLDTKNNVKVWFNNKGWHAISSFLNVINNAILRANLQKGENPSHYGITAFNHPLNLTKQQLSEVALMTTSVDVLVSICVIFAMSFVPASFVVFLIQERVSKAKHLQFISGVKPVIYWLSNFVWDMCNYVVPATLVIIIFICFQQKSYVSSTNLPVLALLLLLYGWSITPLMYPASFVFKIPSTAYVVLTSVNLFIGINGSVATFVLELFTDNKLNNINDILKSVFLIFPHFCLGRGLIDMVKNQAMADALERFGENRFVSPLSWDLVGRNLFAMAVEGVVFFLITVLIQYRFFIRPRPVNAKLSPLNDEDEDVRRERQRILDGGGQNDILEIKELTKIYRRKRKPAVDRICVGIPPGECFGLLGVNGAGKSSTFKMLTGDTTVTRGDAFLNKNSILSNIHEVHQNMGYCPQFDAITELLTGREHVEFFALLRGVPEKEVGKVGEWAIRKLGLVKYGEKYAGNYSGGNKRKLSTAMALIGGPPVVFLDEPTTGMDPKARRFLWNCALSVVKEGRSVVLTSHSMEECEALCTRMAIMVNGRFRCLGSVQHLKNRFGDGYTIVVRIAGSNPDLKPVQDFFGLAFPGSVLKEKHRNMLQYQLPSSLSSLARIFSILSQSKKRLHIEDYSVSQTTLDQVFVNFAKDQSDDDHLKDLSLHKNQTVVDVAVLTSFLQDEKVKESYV", "T1 sequence (P02647 25-267 partner)": "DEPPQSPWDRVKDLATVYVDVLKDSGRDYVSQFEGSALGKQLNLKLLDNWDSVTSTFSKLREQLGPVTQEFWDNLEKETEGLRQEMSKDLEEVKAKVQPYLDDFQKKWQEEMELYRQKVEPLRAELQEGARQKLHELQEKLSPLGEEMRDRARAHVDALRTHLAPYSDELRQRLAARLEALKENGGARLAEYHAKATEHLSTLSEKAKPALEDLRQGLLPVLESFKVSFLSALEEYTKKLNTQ", "test": "cell-based ELISA-like apoA-I binding to ABCA1-transfected CHO cells, with vector-only control; western blot"}
{"smiles": "COc1ccc(Cl)cc1C(=O)NCCc1ccc(S(=O)(=O)NC(=O)NC2CCCCC2)cc1", "note": "[glibenclamide]", "values": [{"measurement": "cell-based ELISA-like apoA-I binding to ABCA1-transfected CHO cells, with vector", "result": "an inhibition by glibenclamide was observed on transfected cells expressing ABCA1"}]}
